Series [1] is described as follows: Single dose oral pharmacokinetic study in mice. It counts as in vivo. Conditions: mouse, plasma, Mice oral PK @30 mg/kg (Table 4). The procedure, abridged:
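Mice or rats dosed orally at 30 mg/kg in a suitable vehicle (10 ml/kg). Retro-orbital blood on K3 EDTA at defined time points under light ether anaesthesia; plasma analysed by LC-MS-MS.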

In series [2] the test system is HIV-1 strain 92HT599. Briefly: Antiviral activity: p24 estimation in MT2 cells infected with HIV-1 strain 92HT599. It counts as cell-based. Conditions: Human immunodeficiency virus 1, MT2 cells, HIV-1 92HT599, ~96 hours, p24. The method in brief: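 Infection of MT2 cells used 10 TCID50/30000 cells, with compound present at ≤1% DMSO for ~96 h. p24 in well aliquots was quantified by kit. Percent inhibition is relative to vehicle controls.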

The nature of series [3]: Cyto-toxicity assay (MTT) in MT2 cells without virus. It counts as cell-based. Conditions: human. As to the method:
For cyto-toxicity assay the same amount of MT2 cells as in antiviral assay without virus was added to the 96 well plates. The cyto-toxicity was measured using MTT reagent in parallel with p24 estimation. The percent viability is calculated in comparison with vehicle control.

Series [4] can be described thus: Single dose oral pharmacokinetic study in rat. It counts as in vivo. The following applies: plasma, Rat oral PK @30 mg/kg (Table 3). As to the method:
The test item was administered through oral route to animals (rat/mice) at 30 mg/kg dose in a suitable vehicle at 10 ml/kg dose volume. Blood samples (˜50 uL at each time point) were collected from retro-orbital plexus using K3 EDTA as anticoagulant in eppendorf tubes at defined time intervals under light ether anesthesia. The samples were centrifuged at 3500×g to separate plasma and stored at −80° C. until analysis.
Sample analysis: Test samples were analyzed using LC-MS-MS after developing fit-for-purpose method for each of test compound.

This is an account of results in patent US20150119373A1, “NOVEL BETULINIC ACID DERIVATIVES AS HIV INHIBITORS” (HETERO RESEARCH FOUNDATION, priority 2012, published 2015).

In series [1], `C=C(C)[C@@H]1CC[C@]2(C(=O)N[C@@H]3C[C@H](c4nnc(C)o4)C3(C)C)CC[C@]3(C)[C@H](CC[C@@H]4[C@@]5(C)CC[C@H](OC(=O)CC(C)(C)C(=O)O)C(C)(C)[C@@H]5CC[C@]43C)[C@@H]12` [Example 11, 4-((1R,3aS,5aR,5bR,7aR,9S,11aR,11bR,13aR,13bR)-3a-((1R,3S)-2,2-dimethyl-3-(5-methyl-1,3,4-oxadiazol-2-yl)cyclobutylcarbamoyl)-5a,5b,8,8,11a-pentamethyl-1-(prop-1-en-2-yl)icosahydro-1H-cyclopenta[a]chrysen-9-yloxy)-2,2-dimethyl-4-oxo butanoicacid] had a total exposure AUC(0-inf) of 138 µg·h/mL and a Cmax of 11.3 µg/mL. Besides, the AUC(0-t) in series [1] (read-out: AUC 0-t) was determined as 115 µg·h/mL. The half-life in series [1] (read-out: t½ (converted)) is 3.66 h. In series [2] (100 nM, read-out: Antiviral activity % inhibition 100 nM), the inhibition at 0.1 µM is 100%. In series [2] (1000 nM, read-out: Antiviral activity % inhibition 1000 nM), the inhibition at 1 µM was 100%. In series [3], this compound came in with a viability at 100 nM of 96% and a viability at 1000 nM of 98%. In series [4], this compound displayed an AUC(0-inf) of 8.16 µg·h/mL, an exposure AUC(0-t) of 8.05 µg·h/mL and a Cmax of 1.97 µg/mL. Moreover, the half-life in series [4] (read-out: t½ (converted)) is 3.66 h.
